This note sets out measurements from ChEMBL document CHEMBL1157539, “Thousands of chemical starting points for antimalarial lead identification” (Nature, 2010).

The assay has as its system Plasmodium falciparum. Nature of the assay: GSK_TCMDC: Inhibition of Plasmodium falciparum 3D7 in whole erythrocytes, using parasite LDH activity as an index of growth. The format is functional, organism-based. As to conditions: Plasmodium falciparum, 3D7.
The compound `CC(=O)c1ccc(NC(=O)Nc2ccc(N(C)c3ccnc(Nc4cccc(CS(C)(=O)=O)c4)n3)cc2)cc1` came in with an XC50 of 122 nM. In turn, `CC(C)N1CCC(N(Cc2ccc(-c3ccc(C(F)(F)F)cc3)cc2)C(=O)Cn2c(SCc3cccc(F)c3F)cc(=O)c3c2CCC3)CC1` displayed an XC50 of 1160 nM. In the case of `Nc1nc(N)c2c3c(ccc2n1)CCC3` it was 928 nM; in that of `CCN(CC)CCNc1cc(C)nc(NC(=N)Nc2ccc(Cl)cc2)n1`, 130 nM; in that of `COc1ccc(C(O)CNC(C)CCc2ccc(F)cc2)cc1C(F)(F)F` (configuration not stated), 747 nM.

On to `COc1ccc(NC(=O)Nc2cccc(-c3ccc(-c4nc5cc(C(F)(F)F)ccc5[nH]4)cc3)c2)cc1`, for which the XC50 worked out at 452 nM. Turning to `O=C(Cc1ccc(NC(=O)c2ccc(O)c(-c3ccc(Cl)c(Cl)c3)c2)cc1)NCCN1CCOCC1`, the XC50 is 806 nM. `CCN1CCN(Cc2ccc3nc(-c4cc(C)n(Cc5cc(Cl)ccc5OCc5ccccc5)n4)[nH]c3c2)CC1` came in with an XC50 of 770 nM.

In the case of `COc1ccc(-c2onc(C(F)(F)F)c2-c2ccc(Br)cc2)c(O)c1`, the XC50 is 237 nM. For `CCOC(=O)c1nc(-c2cc(Cl)nc(Cl)c2)[nH]c1NC(=S)NCc1ccc(NS(C)(=O)=O)cc1`, the XC50 was 892 nM. Compound `O=C(Nc1cccc(CN2CCN(Cc3ccc(O)cc3)CC2)c1)c1ccc(-c2ccccc2)cc1` yielded an XC50 of 245 nM. Take `O=C(NC1CCC(N2CCC(Cc3ccc(F)cc3)CC2)CC1)c1cc2ccccc2[nH]1` (configuration not stated): the XC50 worked out at 868 nM. Regarding `Cc1cccn2c(=O)c3cc(C(=O)NCCc4ccccc4)c(=N)n(CCCOC(C)C)c3nc12`, the XC50 amounted to 481 nM. On to `CCCCCN1CCC(NS(=O)(=O)c2ccc(C(=O)Nc3cccc(C(F)(F)F)c3)cc2)C1` (configuration not stated), for which the XC50 was 995 nM.

In turn, `O=C(NCCCCN1CCC(c2ccc3ccccc3c2O)CC1)c1ccc(NC(=O)c2ccc(Cl)cc2)cc1` yielded an XC50 of 1010 nM. For the compound `CN1CCC(O)(c2ccc(Br)cc2)C(C(O)c2ccc(Br)cc2)C1` (configuration not stated), the XC50 came to 731 nM.

`CN(C)CCCN1CCN(C(=O)c2cc3cc(-c4ccccc4)ccc3n2S(=O)(=O)c2ccccc2)CC1`: the XC50 was 119 nM.

In the case of `C=C(NC(=O)c1cc(C)cc(C)c1)C(=O)OC`, the XC50 stood at 174 nM.

The compound `CN(C)c1ccc(C2c3[nH]cnc3CCN2C(=O)Nc2cccc([N+](=O)[O-])c2)cc1` (configuration not stated) had an XC50 of 966 nM.

On to `CC(C)(C)c1ccc(OCCCON2C(N)=NC(N)=NC2(C)C)cc1`, for which the XC50 came to 3.2 nM.

`c1cc(CN2CCN(CCN3CCOCC3)CC2)cc(-c2csc(-c3nc4ccccc4[nH]3)c2)c1`: the XC50 is 452 nM. The compound `O=S(=O)(c1ccc(Oc2ccccc2)cc1)N(CCC(O)(C(F)(F)F)C(F)(F)F)Cc1cccc(O)c1` had an XC50 of 491 nM. `Oc1cc2ccccc2cc1CNC1CCCCC1` came in with an XC50 of 586 nM. Turning to `COc1c(C2CCN(CCCCNC(=O)c3ccc(-c4ccc(Cl)cc4)c(OCC(N)=O)c3)CC2)ccc2c1CCCC2`, the XC50 stood at 1010 nM. Compound `Oc1ccc(Nc2nc(NCC3CCCO3)c3ccccc3n2)cc1` (configuration not stated) gave an XC50 of 806 nM. For the compound `Cc1nc2ccccc2c(O)c1-c1ccc(Cl)cc1`, the XC50 is 999 nM.

`CCn1cnc2c(N3CCCCS3(=O)=O)cc(C(=O)N[C@@H](Cc3ccccc3)[C@H](O)CNC3CCOCC3)cc21` came in with an XC50 of 712 nM.

`Cc1ccccc1NC(=O)C1CSCN1C(=O)OCc1ccccc1` (configuration not stated) returned an XC50 of 983 nM.

`CN1CCN(CCCNCc2cccc(Nc3nccc(Nc4ccc(Oc5ccccc5)cc4)n3)c2)CC1` displayed an XC50 of 765 nM. With `c1ccc2c(Nc3ccc(Oc4ccc(Nc5c6ccccc6nc6ccccc56)cc4)cc3)c3ccccc3nc2c1` the figure was 518 nM. `O=C(NCCCN1CCC(N2CCCCC2)CC1)c1ccc(N2CCOc3ccccc32)s1` gave an XC50 of 732 nM.

Regarding `CCc1c(CCNCCCCCCNCCc2ccc(OC)c(OC)c2C)ccc(OC)c1OC`, the XC50 turned out to be 1570 nM.

As to `CNCCNCc1ccc(-c2ccc(-c3nc4cc(F)ccc4[nH]3)s2)cc1`, the XC50 was 772 nM.

`O=C(CCCCCCc1ccccc1)Nc1ccc2nc3c(c(NCc4ccccc4)c2c1)CCCC3` had an XC50 of 358 nM. As to `Nc1nc(N)c2c3c(cnc2n1)CCCC3`, the XC50 was found to be 770 nM. Take `O=C(Nc1cc(Cl)c(Cl)cc1NC(=O)c1cccc(-c2ccccc2)c1O)c1cccc(-c2ccccc2)c1O`: the XC50 came out at 505 nM.

Consider `CC(C)c1cc(Oc2c(I)cc(CCNC(=N)N)cc2I)ccc1O`, for which the XC50 was determined as 788 nM. As for `O=C(Nc1ccc([N+](=O)[O-])cc1)Nc1cc(OCC(F)(F)F)cc(OCC(F)(F)F)c1`, the XC50 came to 469 nM. `O=C(NC1CCN(Cc2ccc3c(c2)OCCO3)CC1)c1ccc(-c2cccc(C(F)(F)F)c2)s1` came in with an XC50 of 1830 nM. With `CN=C(N)c1ccc(NC(=O)C=Cc2ccc(C(=O)Nc3ccc(C(N)=NC)cc3)cc2)cc1` the figure was 31.4 nM. As to `Cc1cc(N(C)C2CCN(C)CC2)nc(Nc2ccc(Br)cc2)n1`, the XC50 is 480 nM.

For the compound `Cc1cccc2nc(-c3cccc(-c4ccc(CN5CCC(C(N)=O)CC5)cc4)c3)[nH]c12`, the XC50 turned out to be 853 nM. `CCc1c[nH]c2c(N3CCCC3=O)cc(C(=O)N[C@@H](Cc3ccccc3)[C@H](O)CNC3CCCCC3)cc12` registered an XC50 of 102 nM. Take `Cc1cccc2nc(-c3cccc(-c4ccc(NC(=O)C(C)C(=O)NC(C)C)cc4)c3)[nH]c12` (configuration not stated): the XC50 was determined as 1000 nM. Take `FC(F)(F)c1ccc2[nH]c(-c3cccc(-c4cccc(CNCCc5ccncc5)c4)c3)nc2c1`: the XC50 is 141 nM. With `CCCCCCN(CCCCCC)CCCCNc1c2ccc(Cl)cc2nc2ccc(OC)cc12` the figure was 535 nM; with `O=C(NC(c1ccccc1)c1ccccc1)C(c1cc2ccccc2o1)N1CCN(C(c2ccccc2)c2ccccc2)CC1` (configuration not stated), 679 nM; with `COc1ccc2nccc(NCC3(O)CCN(CCc4ccc5c(c4)OCCO5)CC3)c2n1`, 597 nM. For the compound `CCCOc1ccc(CNCCCCCCNCc2ccc(OCCC)c3ccccc23)c2ccccc12`, the XC50 came out at 410 nM. Compound `CCN(CC)CCOc1c(Cl)cc(Cl)cc1CNCCCNc1cc(=O)c2ccccc2[nH]1` came in with an XC50 of 871 nM. `CC(C)COc1ccc(Cl)cc1Cc1ccc(-c2nc3cc(CCN4CCCC4)ccc3[nH]2)o1` returned an XC50 of 730 nM. Turning to `Cc1cc(C)c(C(=O)Nc2ccc3nc(C)cc(N)c3c2)c(C)c1`, the XC50 amounted to 1100 nM. The compound `Oc1c(CN2CCCC(C(F)(F)F)C2)cc(Cl)c2ccccc12` (configuration not stated) showed an XC50 of 1570 nM. Turning to `CN(C)CC(=O)Nc1ccc(-c2ccc3ccnc(N)c3c2)cc1`, the XC50 came to 33.1 nM. `COc1cc2ncnc(NCCc3ccccc3Cl)c2cc1OC` gave an XC50 of 1120 nM. Consider `COc1cc(OC)c2c(C)cc(NCCCn3ccnc3)nc2c1`, for which the XC50 stood at 804 nM. The compound `COc1ccc2nc(C)cc(NCc3ccc4ccccc4c3)c2c1` gave an XC50 of 468 nM. `CCc1cn(CCCOC)c2ccc(C(=O)N[C@@H](Cc3ccccc3)[C@H](O)CNCc3cccc(C(F)(F)F)c3)cc12` gave an XC50 of 186 nM.

With `COc1cc(CNCCCNc2cc(=O)c3ccccc3[nH]2)c2c(c1)C(C)CN2C(=O)OC(C)(C)C` (configuration not stated), the XC50 stood at 734 nM. `Cc1nnsc1C(=O)Nc1cccc(-c2cccc(-c3nc4ccccc4[nH]3)c2)c1` registered an XC50 of 437 nM. With `CC(=O)c1sc(NC(=O)Nc2ccc(C)cc2C)nc1C`, the XC50 stood at 906 nM. Compound `CCOc1ccccc1CON1C(N)=NC(N)=NC1(C)C` returned an XC50 of 3.71 nM.

`Cc1ccc(NC(=O)c2ccc(CN3CCCN(CCC(C)C)CC3)cc2)cc1C` returned an XC50 of 913 nM. With `CC1(C)NC(N)=NC(=N)N1OCCSCc1cc(Cl)sc1Cl` the figure was 3.2 nM; with `Nc1nc(N)c2c(ccc3c2ccn3Cc2cc3c(cc2Cl)OCO3)n1`, 3.2 nM. `C=C[C@]1(C)C[C@@H](OC(=O)CSC2CN3CCC2C3)[C@@]2(C)C3C(=O)CC[C@@]3(CC[C@H]2C)[C@@H](C)[C@@H]1O` (some centres not stated) returned an XC50 of 689 nM.

Consider `C[C@H](Cc1ccc(Oc2ccc(C[C@@H](C)NC[C@H](O)c3cccc(Cl)c3)cc2)cc1)NC[C@H](O)c1cccc(Cl)c1`, for which the XC50 was determined as 560 nM. Compound `O=C(/C=C/c1ccc(Cl)c(Cl)c1)N1CCC(CN2CCC(c3c[nH]c4ccc(O)cc34)CC2)CC1` registered an XC50 of 776 nM. With `CC(C)C[C@H](NC(=O)c1ccc(OCCN2CCOCC2)cc1)C(=O)N[C@H](/C=N/N(C)C(=O)c1ccccc1)CCc1ccccc1`, the XC50 was 269 nM.

Consider `Cc1cc(-c2ccc(CN3Cc4ccccc4C3)cc2)ccc1S(=O)(=O)NCCN1CCCC1`, for which the XC50 is 966 nM. Compound `CC(C)(CNC(=O)[C@@H]1CCCCN1)c1nc(-c2ccc(Cl)c(O)c2)c(-c2ccncc2)[nH]1` came in with an XC50 of 841 nM. `CCOc1ccc2nc3cc([N+](=O)[O-])ccc3c(N)c2c1` yielded an XC50 of 139 nM. In the case of `CC1CN(Cc2cccc(F)c2)CCN1c1ccc(NC(=O)c2ccc(F)cc2)cc1` (configuration not stated), the XC50 was 580 nM. The compound `COc1ccccc1Oc1c(N(C)S(=O)(=O)c2ccc(C(C)C)cc2)nc(C(F)(F)F)nc1N(C)S(=O)(=O)c1ccc(C(C)C)cc1` showed an XC50 of 846 nM. Turning to `Cc1ccc(Cc2cnc(CN3CCCCC3)c(O)c2)cc1`, the XC50 was determined as 890 nM.

Regarding `Nc1ncc(-c2ccc(F)cc2)c2ccc(-c3cccc(F)c3)cc12`, the XC50 is 227 nM. The compound `C=CCc1cc(SC)ccc1Oc1ccc(N)cc1` yielded an XC50 of 742 nM. `Cc1cc(N[C@@H](CC(C)C)C(=O)NCCOc2ccccc2)nc(NCCc2ccc(F)cc2)n1`: the XC50 came to 1290 nM. The compound `CN1CCC(NCc2ccc(-c3cccc(-c4nc5ccccc5[nH]4)c3)cc2)CC1` registered an XC50 of 126 nM. Take `O=C(Nc1ccc(C(F)(F)F)cc1)NC1CCN(c2ccnc3ccccc23)C1` (configuration not stated): the XC50 was determined as 87.5 nM.

Consider `COc1ccc(F)cc1-c1csc(N(c2ccc(F)cc2)C2CCNCC2)n1`, for which the XC50 is 1210 nM.

Turning to `COc1cc2c(cc1S(=O)(=O)c1ccc(NC(=O)c3ccc4ccccc4c3)cc1)CCN(C)CC2`, the XC50 was 797 nM. Take `CC(C)COc1ccc(Cl)cc1Cc1ccc(-c2nc3c(F)cccc3[nH]2)o1`: the XC50 is 806 nM. The compound `CCNc1cc(C(=O)N[C@@H](Cc2ccccc2)[C@H](O)CNC23CCC(CC2)C3)cc(N2CCCCS2(=O)=O)c1` gave an XC50 of 34.1 nM.

Take `Cc1ccc(-c2nc(NC(=O)Nc3ccc(C(F)(F)F)cc3)sc2C)cc1Cl`: the XC50 was 659 nM. `NC(=O)c1cccc(Nc2nccc(Nc3ccc(Oc4ccc5ccccc5c4)cc3)n2)c1` yielded an XC50 of 810 nM. Take `CCc1cccc(NC(=O)/C=C/c2ccc3c(c2)CN(C)CC3)c1`: the XC50 worked out at 767 nM.
